Consider three compounds from ChEMBL document CHEMBL1201862, “PubChem BioAssay data set” (2004).

Some test systems named below: DMS-114; SNB-75; XF498; KM-20L2; TK-10; HOP-18; SK-OV-3; DLD-1; RPMI-8226; CCRF-CEM; HT-29; SN12C; DMS-273; U-251; LXFL 529; SR; UACC-62; MCF7; NCI/ADR-RES.
What all share (assay): NCI-60 cell line screen, 48 h

Structures are written as SMILES.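 These data come from cells grown in 96-well plates and exposed to compound for 48 hours at five concentrations. Here, GI50 denotes the concentration required for 50% inhibition of growth.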 The source made the active and inactive calls. Cut-off read from the data, not from the text of the source: active = GI50 up to about 1.1 µM and inactive = higher. Bounds are passed on as bounds.

Take `COC(=O)C(=O)C(C(=O)Nc1cccc(C)c1C)C1Sc2ccccc2NC1=O` (centres undefined): the GI50 was 5.83 µM (inactive) in the assay with DMS-114; 9.84 µM (inactive) in the assay on SNB-75; > 25 µM (inactive) in the assay on XF498; 8.67 µM (inactive) in the assay with KM-20L2; > 25 µM (inactive) in the assay with TK-10; > 25 µM (inactive) in the assay with HOP-18. Also, the GI50 was > 25 µM (inactive) with SK-OV-3; 11.2 µM (inactive) with DLD-1; 9.48 µM (inactive) with RPMI-8226; > 25 µM (inactive) with CCRF-CEM; 7.8 µM (inactive) with HT-29; > 25 µM (inactive) with SN12C. Further, the GI50 is 11.8 µM (inactive) in the assay with DMS-273; 12.3 µM (inactive) in the assay on U-251; > 25 µM (inactive) in the assay on LXFL 529; 13.7 µM (inactive) in the assay with SR; 8.09 µM (inactive) in the assay on UACC-62.
As to `CC1CC=CC(O)C1` (centres undefined), the GI50 with DMS-114 was > 100 µM (inactive); with SNB-75 it was > 93.5 µM (inactive); with XF498 it was > 100 µM (inactive); in the assay on KM-20L2, > 100 µM (inactive); in the assay with MCF7, > 100 µM (inactive); in the assay on HOP-18 it was > 100 µM (inactive). Besides, the GI50 in the assay with SK-OV-3, in the assay on DLD-1, in the assay on RPMI-8226, in the assay on CCRF-CEM, with HT-29 and with NCI/ADR-RES was > 100 µM (inactive) in each case. For the same compound, the GI50 with SN12C, in the assay on DMS-273, with U-251 and in the assay on UACC-62 was > 100 µM (inactive) in each case.
`COc1cc(C2c3cc4c(cc3[C@@H](Nc3cccc([N+](=O)[O-])c3)C3COC(=O)[C@H]23)OCO4)cc(OC)c1O` (some centres undefined): the GI50 with DMS-114 was 2.7 µM (inactive); in the assay on SNB-75 it was 4.1 µM (inactive); with XF498, 3.13 µM (inactive); with KM-20L2, 3.64 µM (inactive); with MCF7 it was 0.944 µM (active); in the assay with HOP-18 it was 3.37 µM (inactive). Further, the GI50 in the assay on SK-OV-3 was 2.51 µM (inactive); with DLD-1, 1.93 µM (inactive); in the assay with RPMI-8226, 3.05 µM (inactive); in the assay on CCRF-CEM, 0.4 µM (active); with HT-29 it was 2.6 µM (inactive); with NCI/ADR-RES, 8.07 µM (inactive). Further, the GI50 in the assay with SN12C was 2.75 µM (inactive); in the assay with DMS-273, 0.615 µM (active); in the assay with U-251, 1.94 µM (inactive); in the assay with UACC-62 it was 2.52 µM (inactive).
